# Results taken from PubChem BioAssay AID248 (DTP/NCI, 2004).
# Several values for one entry are separate records, joined by “and”; a condition that tells them apart may be missing. Identical values can stand only once. Toxic doses and inconclusive results are not listed.
# System: L1210 leukemia ip in BDF1 mice, survival T/C
# Assay: NCI In Vivo Anticancer Drug Screen. Data for tumor model L1210 Leukemia (intraperitoneal) in B6D2F1 (BDF1) mice
# Conditions: endpoint: mean survival time, higher = longer survival
# How it was run: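 Ratio derived from survival: compound-dosed mice over vehicle-dosed mice, all bearing a transplantable tumor.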
# [1] = dose: 100.0 mg/kg/injection, schedule: Q01DX009 (ip), vehicle: Klucel (hydroxypropylcellulose) (HPC)
# [2] = dose: 200.0 mg/kg/injection, schedule: Q01DX009 (ip), vehicle: Klucel (hydroxypropylcellulose) (HPC)
# [3] = dose: 400.0 mg/kg/injection, schedule: Q01DX009 (ip), vehicle: Klucel (hydroxypropylcellulose) (HPC)
# [4] = dose: 100.0 mg/kg/injection, schedule: Q04DX003 (ip), vehicle: Klucel (hydroxypropylcellulose) (HPC)
# [5] = dose: 200.0 mg/kg/injection, schedule: Q04DX003 (ip), vehicle: Klucel (hydroxypropylcellulose) (HPC)
# [6] = dose: 400.0 mg/kg/injection, schedule: Q04DX003 (ip), vehicle: Klucel (hydroxypropylcellulose) (HPC)
# [7] = dose: 100.0 mg/kg/injection, schedule: Q01DX009 (ip), vehicle: saline with Tween-80
# [8] = dose: 200.0 mg/kg/injection, schedule: Q01DX009 (ip), vehicle: saline with Tween-80
# [9] = dose: 100.0 mg/kg/injection, schedule: Q01DX001 (ip), vehicle: Klucel (hydroxypropylcellulose) (HPC)
# [10] = dose: 200.0 mg/kg/injection, schedule: Q01DX001 (ip), vehicle: Klucel (hydroxypropylcellulose) (HPC)
# [11] = dose: 400.0 mg/kg/injection, schedule: Q01DX001 (ip), vehicle: Klucel (hydroxypropylcellulose) (HPC)
# [12] = dose: 200.0 mg/kg/injection, schedule: Q04DX002 (ip), vehicle: Klucel (hydroxypropylcellulose) (HPC)
# [13] = dose: 400.0 mg/kg/injection, schedule: Q04DX002 (ip), vehicle: Klucel (hydroxypropylcellulose) (HPC)
compound,measurement,setting,value
NC(=S)N/N=C/c1ccc(Br)s1,T/C,"dose: 100.0 mg/kg/injection, schedule: Q01DX001 (ip), vehicle: carboxymethylcellulose (CMC)",87 % of control
same,T/C,"dose: 200.0 mg/kg/injection, schedule: Q01DX001 (ip), vehicle: carboxymethylcellulose (CMC)",100 % of control
O=C1OC(=O)C(=C(c2ccccc2)c2ccccc2)C1=C(c1ccccc1)c1ccccc1,T/C,[1],101 % of control
same,T/C,[2],92 % of control
same,T/C,[3],92 % of control
Cc1ccc(S(=O)(=O)N/N=C/c2ccc([N+](=O)[O-])s2)cc1,T/C,[4],96 % of control
same,T/C,[5],94 % of control
same,T/C,[6],96 % of control
COC(=O)c1c[nH]c2cc(OC(C)C)c(OC(C)C)cc2c1=O,T/C,"dose: 100.0 mg/kg/injection, schedule: Q01DX001 (ip), vehicle: saline with Tween-80",96 % of control
same,T/C,"dose: 200.0 mg/kg/injection, schedule: Q01DX001 (ip), vehicle: saline with Tween-80",91 % of control
same,T/C,"dose: 400.0 mg/kg/injection, schedule: Q01DX001 (ip), vehicle: saline with Tween-80",100 % of control
Cc1nnc2c3ccccc3cnn12,T/C,"dose: 75.0 mg/kg/injection, schedule: Q01DX001 (ip), vehicle: carboxymethylcellulose (CMC)",98 % of control
same,T/C,"dose: 150.0 mg/kg/injection, schedule: Q01DX001 (ip), vehicle: carboxymethylcellulose (CMC)",97 % of control
same,T/C,"dose: 300.0 mg/kg/injection, schedule: Q01DX001 (ip), vehicle: carboxymethylcellulose (CMC)",98 % of control
CCC(=O)Nc1ccc(Cl)cc1,T/C,[1],87 % of control
same,T/C,[4],95 % of control
same,T/C,[2],93 % of control
same,T/C,[5],95 % of control
same,T/C,[3],104 % of control
same,T/C,[6],95 % of control
O=C(O)C(Br)C(Br)C(=O)Nc1ccc(Cl)c(Cl)c1 (configuration not stated),T/C,[7],101 % of control
same,T/C,[8],104 % of control
same,T/C,"dose: 400.0 mg/kg/injection, schedule: Q01DX009 (ip), vehicle: saline with Tween-80",93 % of control
O=[N+]([O-])c1ccc(C(=NO)c2ccc([N+](=O)[O-])cc2)cc1,T/C,[9],103 % of control
same,T/C,[10],109 % of control
same,T/C,[11],101 % of control
CC1=Nc2cc(C)c(C)cc2N=C(C)C1,T/C,[1],96 % of control
same,T/C,[4],93 % of control
same,T/C,[2],98 % of control
same,T/C,[5],97 % of control
COc1ccc(C(=Nc2ccc(C)cc2)c2ccccc2)cc1,T/C,"dose: 12.0 mg/kg/injection, schedule: Q01DX009 (ip), vehicle: Klucel (hydroxypropylcellulose) (HPC)",105 % of control
same,T/C,"dose: 12.5 mg/kg/injection, schedule: Q01DX009 (ip), vehicle: Klucel (hydroxypropylcellulose) (HPC)",102 % of control
same,T/C,"dose: 25.0 mg/kg/injection, schedule: Q01DX009 (ip), vehicle: Klucel (hydroxypropylcellulose) (HPC)",105 % of control
same,T/C,"dose: 50.0 mg/kg/injection, schedule: Q01DX009 (ip), vehicle: Klucel (hydroxypropylcellulose) (HPC)",97 % of control and 113 % of control
same,T/C,[1],122 % of control
same,T/C,[4],101 % of control
same,T/C,[2],107 % of control
same,T/C,[5],98 % of control
same,T/C,[3],107 % of control
same,T/C,[6],98 % of control
O=C1C2C3CCC(CC3)C2C(O)C2C3CCC(C3)C12 (configuration not stated),T/C,"dose: 50.0 mg/kg/injection, schedule: Q01DX009 (ip), vehicle: saline with Tween-80",93 % of control
same,T/C,[7],96 % of control
same,T/C,[8],93 % of control
O=C(/C=C\C(=O)c1ccc(Cl)cc1)c1ccc(Cl)cc1,T/C,"dose: 50.0 mg/kg/injection, schedule: Q04DX003 (ip), vehicle: carboxymethylcellulose (CMC)",104 % of control
same,T/C,"dose: 100.0 mg/kg/injection, schedule: Q04DX003 (ip), vehicle: carboxymethylcellulose (CMC)",112 % of control
same,T/C,"dose: 200.0 mg/kg/injection, schedule: Q04DX003 (ip), vehicle: carboxymethylcellulose (CMC)",102 % of control
Cc1cc(=O)c(O)c(N(C)C)o1,T/C,"dose: 100.0 mg/kg/injection, schedule: Q04DX002 (ip), vehicle: saline with Tween-80",102 % of control
same,T/C,"dose: 200.0 mg/kg/injection, schedule: Q04DX002 (ip), vehicle: saline with Tween-80",102 % of control
same,T/C,"dose: 400.0 mg/kg/injection, schedule: Q04DX002 (ip), vehicle: saline with Tween-80",115 % of control
COC(=O)C1C2c3ccccc3C(C1C(=O)OC)[n+]1ccccc12 (configuration not stated),T/C,[4],95 % of control
same,T/C,[5],98 % of control
CC1CN=C(c2ccc(NC(=O)NCCCNC(=O)Nc3ccc(C4=NCC(C)N4)cc3)cc2)N1 (configuration not stated),T/C,"dose: 30.0 mg/kg/injection, schedule: Q01DX015 (ip), vehicle: methylcellulose (MC)",150 % of control
N#CCCN(C(=O)Nc1cccc(Cl)c1)C1CCCCC1,T/C,[1],103 % of control
same,T/C,[2],90 % of control
same,T/C,[3],97 % of control
O=C(NCc1ccccc1Cl)Nc1ccccc1F,T/C,[1],106 % of control
same,T/C,[2],98 % of control
same,T/C,[3],115 % of control
O=[N+]([O-])C(c1ccccc1)C(C/C(=N/O)c1ccccc1)c1ccccc1 (configuration not stated),T/C,"dose: 100.0 mg/kg/injection, schedule: Q04DX002 (ip), vehicle: Klucel (hydroxypropylcellulose) (HPC)",100 % of control
same,T/C,[12],92 % of control
same,T/C,[13],96 % of control
O=C(Cc1ccccc1)Nc1ccc(Nc2ccccc2)cc1,T/C,[12],100 % of control
same,T/C,[13],95 % of control
C(=N\Nc1nn[nH]n1)/c1ccccc1,T/C,[7],202 % of control
same,T/C,"dose: 100.0 mg/kg/injection, schedule: Q04DX003 (ip), vehicle: saline with Tween-80",95 % of control
same,T/C,"dose: 200.0 mg/kg/injection, schedule: Q04DX003 (ip), vehicle: saline with Tween-80",97 % of control
same,T/C,"dose: 400.0 mg/kg/injection, schedule: Q04DX003 (ip), vehicle: saline with Tween-80",103 % of control
CCCCCCCCCCCCCCCCCC(=O)N/N=C/CCc1ccccc1,T/C,[7],87 % of control
Cc1cc(NC(=O)CCc2ccc(N3C(N)=NC(N)=NC3(C)C)cc2)ccc1S(=O)(=O)F,T/C,"dose: 4.0 mg/kg/injection, schedule: Q03HX024 (ip), vehicle: other",104 % of control
same,T/C,"dose: 7.82 mg/kg/injection, schedule: Q12HX018 (ip), vehicle: acetone",106 % of control
same,T/C,"dose: 8.0 mg/kg/injection, schedule: Q03HX008 (ip), vehicle: other",117 % of control
same,T/C,"dose: 8.0 mg/kg/injection, schedule: Q03HX024 (ip), vehicle: other",114 % of control
same,T/C,"dose: 15.62 mg/kg/injection, schedule: Q12HX018 (ip), vehicle: acetone",105 % of control
same,T/C,"dose: 16.0 mg/kg/injection, schedule: Q01DX009 (ip), vehicle: other",112 % of control
same,T/C,"dose: 16.0 mg/kg/injection, schedule: Q03HX008 (ip), vehicle: other",104 % of control
same,T/C,"dose: 16.0 mg/kg/injection, schedule: Q03HX024 (ip), vehicle: other",114 % of control
same,T/C,"dose: 18.0 mg/kg/injection, schedule: Q## X018 (ip), vehicle: saline",118 % of control
same,T/C,"dose: 25.0 mg/kg/injection, schedule: Q01DX001 (ip), vehicle: Klucel (hydroxypropylcellulose) (HPC)",103 % of control
same,T/C,"dose: 31.25 mg/kg/injection, schedule: Q12HX018 (ip), vehicle: acetone",113 % of control
same,T/C,"dose: 32.0 mg/kg/injection, schedule: Q01DX009 (ip), vehicle: other",120 % of control
same,T/C,"dose: 32.0 mg/kg/injection, schedule: Q03HX008 (ip), vehicle: other",109 % of control
same,T/C,"dose: 32.0 mg/kg/injection, schedule: Q03HX024 (ip), vehicle: other",117 % of control
same,T/C,"dose: 32.0 mg/kg/injection, schedule: Q04DX003 (ip), vehicle: other",109 % of control
same,T/C,"dose: 50.0 mg/kg/injection, schedule: Q01DX001 (ip), vehicle: Klucel (hydroxypropylcellulose) (HPC)",105 % of control
same,T/C,"dose: 64.0 mg/kg/injection, schedule: Q01DX001 (ip), vehicle: other",95 % of control
same,T/C,"dose: 64.0 mg/kg/injection, schedule: Q01DX009 (ip), vehicle: other",117 % of control
same,T/C,"dose: 64.0 mg/kg/injection, schedule: Q03HX008 (ip), vehicle: other",111 % of control
same,T/C,"dose: 64.0 mg/kg/injection, schedule: Q04DX003 (ip), vehicle: other",104 % of control
same,T/C,[9],101 % of control and 92 % of control
same,T/C,[10],92 % of control
same,T/C,[11],92 % of control
O=C(Nc1ccc(Cl)cc1Cl)Nc1cc(C(F)(F)F)ccc1Cl,T/C,"dose: 100.0 mg/kg/injection, schedule: Q01DX009 (ip), vehicle: saline",98 % of control
same,T/C,"dose: 200.0 mg/kg/injection, schedule: Q01DX009 (ip), vehicle: saline",95 % of control
same,T/C,"dose: 400.0 mg/kg/injection, schedule: Q01DX009 (ip), vehicle: saline",92 % of control
O=C(COCC(=O)N/N=C/c1cccc([N+](=O)[O-])c1)N/N=C/c1cccc([N+](=O)[O-])c1,T/C,[1],92 % of control
same,T/C,[2],95 % of control
same,T/C,[3],106 % of control
